The text below walks through data of patent EP3586876A1, “GLUCOSE-SENSITIVE PEPTIDE HORMONES” (Gubra ApS, priority 2018, dated 2020).

The nature of this data set: Hydrolysis of linkers with or without glucose present (half-life by LC-MS or UPLC). It is filed as physicochemical. The conditions noted are these: pH 7.4, 37°C, 0.42 mM linker. The protocol:
1.3-1.8 mg of linkers was dissolved in 100 µL DMSO or 100 µL MeCN. 10 µL was taken out from the DMSO stock solution, diluted with 90µL DMSO and dissolved in 900 µL 1xPBS buffer containing 10 000 equiv glucose, pH 7.4 or 900 µL 1xPBS buffer pH 7.4, to give a final concentration of 0.42 mM of the linker. 10 µL was taken out from the MeCN stock solution, diluted with 40 µL MeCN and dissolved in 950 µL 1xPBS buffer containing 10 000 equiv glucose, pH 7.4 or 950 µL 1xPBS buffer pH 7.4 to give a final concentration of 0.42 mM of the linker. The samples were incubated at 37°C and continuously analysed by LC-MS or UPLC.

Setting [1] is: 10% DMSO in PBS buffer, 10.000 equiv Glc.
[2] abbreviates: 5% MeCN in PBS buffer, 10.000 equiv Glc.

In the case of `O=C(O)[C@@H]1CSC(c2ccccc2)N1` (some centres unmarked) [Linker 1], the “Half-life of the linker” value is recorded as 12 h under setting [1] and greater than 48 h (10% DMSO in PBS buffer, no Glc).
Taken in the same sequence, the figures for `COc1ccc(C2N[C@H](C(=O)O)CS2)cc1` (some centres unmarked) [Linker 2] were 2 h and 4 h.
The matching figures for `O=C(O)[C@@H]1CSC(c2ccccc2O)N1` (some centres unmarked) [Linker 3]: 0.5 h and 2 h.
Taken in the same sequence, the figures for `COc1ccc(C2N[C@H](C(=O)O)CS2)cc1O` (some centres unmarked) [Linker 4] were 4 h and 10 h.
On to `O=C(O)[C@@H]1CSC(c2ccc([N+](=O)[O-])cc2)N1` (some centres unmarked) [Linker 5], for which the “Half-life of the linker” value is, setting by setting: under setting [1], greater than 24 h; (10% DMSO in PBS buffer, no Glc) greater than 72 h.
For `O=C(O)[C@@H]1CSC(Cc2ccccc2)N1` (some centres unmarked) [Linker 6], the “Half-life of the linker” value under setting [1] is given as 24 h and the “Half-life of the linker” value (10% DMSO in PBS buffer, no Glc) is reported as greater than 72 h.
In the case of `O=C(OCc1ccccc1)[C@@H]1CSC(c2ccccc2)N1` (stereo partly drawn) [Linker 7, Benzyl (4R)-2-phenyl-1,3-thiazolidine-4-carboxylic acid], the “Half-life of the linker” value is greater than 48 h under setting [2] and greater than 48 h under setting [1].
For `COc1ccc(C2N[C@H](C(=O)OCc3ccccc3)CS2)cc1` (stereo partly drawn) [Linker 8, Benzyl (4R)-2-(4-methoxyphenyl)-1,3-thiazolidine-4-carboxylic acid], the “Half-life of the linker” value runs as follows: under setting [2], 46 h; under setting [1], 42 h.
The matching figures for `COc1cccc(C2N[C@H](C(=O)OCc3ccccc3)CS2)c1` (stereo partly drawn) [Linker 9, Benzyl (4R)-2-(3-methoxyphenyl)-1,3-thiazolidine-4-carboxylic acid]: greater than 72 h and greater than 72 h.
The matching figures for `COc1ccccc1C1N[C@H](C(=O)OCc2ccccc2)CS1` (stereo partly drawn) [Linker 10, Benzyl (4R)-2-(2-methoxyphenyl)-1,3-thiazolidine-4-carboxylic acid]: 45 h and 23 h.
As for `CC(=O)Nc1ccc(C2N[C@H](C(=O)OCc3ccccc3)CS2)cc1` (stereo partly drawn) [Linker 11, Benzyl (4R)-2-(4-acetamidophenyl)-1,3-thiazolidine-4-carboxylic acid], the “Half-life of the linker” value reads like this: under setting [2], greater than 72 h; under setting [1], greater than 72 h.
With `COc1ccc(C2OC[C@@H](C(=O)OCc3ccccc3)N2C(=O)OC(C)(C)C)cc1` (some centres unmarked) [Linker 13], the “Half-life of the linker” value under setting [2] is on record as greater than 72 h; the “Half-life of the linker” value (5% MeCN in PBS buffer, no Glc) is recorded as greater than 72 h; the “Half-life of the linker” value under setting [1] was greater than 72 h; the “Half-life of the linker” value (10% DMSO in PBS buffer, no Glc) is listed as greater than 72 h.
With `CC(C)(C)OC(=O)N1C(c2ccccc2)OC[C@H]1C(=O)OCc1ccccc1` (some centres unmarked) [Linker 15], the “Half-life of the linker” value reads like this: under setting [2], greater than 72 h; (5% MeCN in PBS buffer, no Glc) greater than 72 h; under setting [1], greater than 72 h; (10% DMSO in PBS buffer, no Glc) greater than 72 h.
In the case of `COC(=O)[C@@H]1OC(c2ccc(OC)cc2)O[C@H]1C(=O)OC` [Linker 17], the “Half-life of the linker” value by setting is: under setting [2], 2.2 h; (5% MeCN in PBS buffer, no Glc) 2.2 h; under setting [1], 1.1 h; (10% DMSO in PBS buffer, no Glc) 1.8 h.
Take `COC(=O)[C@@H]1OC(c2ccccc2OC)O[C@H]1C(=O)OC` [Linker 19]: the “Half-life of the linker” value by setting is: under setting [2], 2.5 h; (5% MeCN in PBS buffer, no Glc) 2.5 h; under setting [1], 1.5 h; (10% DMSO in PBS buffer, no Glc) 1.7 h.
